Molecular target: T1, SHP2 protein (Homo sapiens, UniProt Q06124)
T1 sequence (Q06124 1-593): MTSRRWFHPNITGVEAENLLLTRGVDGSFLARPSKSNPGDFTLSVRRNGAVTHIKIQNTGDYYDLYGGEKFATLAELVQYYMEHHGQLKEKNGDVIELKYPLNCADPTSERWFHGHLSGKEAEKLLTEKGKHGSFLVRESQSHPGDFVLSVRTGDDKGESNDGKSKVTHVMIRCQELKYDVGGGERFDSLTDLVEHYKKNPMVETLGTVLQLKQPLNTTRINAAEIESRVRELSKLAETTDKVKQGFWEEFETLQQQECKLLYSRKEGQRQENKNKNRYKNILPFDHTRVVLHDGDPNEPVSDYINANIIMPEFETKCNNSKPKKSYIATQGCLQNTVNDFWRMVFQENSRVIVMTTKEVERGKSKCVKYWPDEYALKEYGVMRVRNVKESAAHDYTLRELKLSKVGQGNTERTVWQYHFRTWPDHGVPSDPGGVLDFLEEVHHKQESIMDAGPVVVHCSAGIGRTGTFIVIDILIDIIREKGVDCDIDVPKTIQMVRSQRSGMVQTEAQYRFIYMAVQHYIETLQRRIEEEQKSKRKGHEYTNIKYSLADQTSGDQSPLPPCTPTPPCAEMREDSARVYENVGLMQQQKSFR
Assay: Measurement of SHP2 protein degradation in NCI-H358 cells (western blotting)
Format: cell-based
Parameters: endogenous in cells; host or cells: NCI-H358
Settings: harvested after 24 hours
How it was run: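 H358 cells in RPMI1640/25 mM HEPES/10% FBS, cultured 24 h, then exposed to compound at final 0.001, 0.01 and 0.1 μM for 24 h against a DMSO control. Lysates were normalised for protein by BCA and probed by western blot for SHP2, with GAPDH as loading control.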

Row | SHP2% degradation (0.01 μM) [%] | SHP2% degradation (0.1 μM) [%] | SMILES
1 | 53.2 | 98.5 | CC(=O)N[C@H](C(=O)N1C[C@H](O)C[C@H]1C(=O)NCc1ccc(-c2scnc2C)cc1OC1CCN(C(=O)C2CCN(c3nccc(Sc4cnc(N5CCC(C)(CN)CC5)cn4)c3Cl)CC2)CC1)C1CC1 [Example 91, (2S,4R)-1-((S)-2-acetamido-2-cyclopropylacetyl)-N-(2-((1-(1-(4-((5-(4-(aminomethyl)-4-methylpiperidin-1-yl)pyrazin-2-yl)thio)-3-chloropyridin-2-yl)piperidine-4-carbonyl)piperidin-4-yl)oxy)-4-(4-methylthiazol-5-yl)benzyl)-4-hydroxypyrrolidine-2-carboxamide]
2 | 30.1 | 80.2 | Cc1cc(C(C(=O)N2C[C@H](O)C[C@H]2C(=O)NCc2ccc(-c3scnc3C)cc2OC2CCN(C(=O)C3CCN(c4nccc(Sc5cnc(N6CCC(C)(CN)CC6)cn5)c4Cl)CC3)CC2)C(C)C)on1 (stereo partly drawn) [Example 92, (2S,4R)—N-(2-((1-(1-(4-((5-(4-(aminomethyl)-4-methylpiperidin-1-yl)pyrazin-2-yl)thio)-3-chloropyridin-2-yl)piperidine-4-carbonyl)piperidin-4-yl)oxy)-4-(4-methylthiazol-5-yl)benzyl)-4-hydroxy-1-(3-methyl-2-(3-methylisoxazol-5-yl)butanoyl)pyrrolidine-2-carboxamide]
3 | 99.9 | 99.9 | Cc1cc(C(C(=O)N2C[C@H](O)C[C@H]2C(=O)NCc2ccc(-c3scnc3C)cc2OC2CCN(C(=O)C3CCN(c4nccc(Sc5cnc(N6CCC(C)(CN)CC6)cn5)c4Cl)CC3)CC2)C(C)C)on1 (stereo partly drawn) [Example 93, (2S,4R)—N-(2-((1-(1-(4-((5-(4-(aminomethyl)-4-methylpiperidin-1-yl)pyrazin-2-yl)thio)-3-chloropyridin-2-yl)piperidine-4-carbonyl)piperidin-4-yl)oxy)-4-(4-methylthiazol-5-yl)benzyl)-4-hydroxy-1-(3-methyl-2-(3-methylisoxazol-5-yl)butanoyl)pyrrolidine-2-carboxamide]
4 | 95.5 | 100.0 | Cc1cc(C(C(=O)N2C[C@H](O)C[C@H]2C(=O)NCc2ccc(-c3scnc3C)cc2OC2CCN(C(=O)C3CCN(c4nccc(Sc5cnc(N6CCC(C)(N)CC6)cn5)c4Cl)CC3)CC2)C(C)C)on1 (stereo partly drawn) [Example 94, (2S,4R)—N-(2-((1-(1-(4-((5-(4-amino-4-methylpiperidin-1-yl)pyrazin-2-yl)thio)-3-chloropyridin-2-yl)piperidine-4-carbonyl)piperidin-4-yl)oxy)-4-(4-methylthiazol-5-yl)benzyl)-4-hydroxy-1-(3-methyl-2-(3-methylisoxazol-5-yl)butanoyl)pyrrolidine-2-carboxamide]
5 | 99.2 | 99.7 | Cc1cc(C(C(=O)N2C[C@H](O)C[C@H]2C(=O)NCc2ccc(-c3scnc3C)cc2OC2CCN(C(=O)C3CCN(c4nccc(Sc5cnc(N6CCC7(CC6)CO[C@@H](C)[C@H]7N)cn5)c4Cl)CC3)CC2)C(C)C)on1 (stereo partly drawn) [Example 95, (2S,4R)—N-(2-((1-(1-(4-((5-((3S,4S)-4-amino-3-methyl-2-oxa-8-azaspiro[4.5]decan-8-yl)pyrazin-2-yl)thio)-3-chloropyridin-2-yl)piperidine-4-carbonyl)piperidin-4-yl)oxy)-4-(4-methylthiazol-5-yl)benzyl)-4-hydroxy-1-(3-methyl-2-(3-methylisoxazol-5-yl)butanoyl)pyrrolidine-2-carboxamide]
6 | 98.9 | 99.9 | Cc1cc(C(C(=O)N2C[C@H](O)C[C@H]2C(=O)NCc2ccc(-c3scnc3C)cc2OC2CCN(C(=O)C3CCN(c4nccc(Sc5cnc(N6CCC(C)(CN)CC6)c(CO)n5)c4Cl)CC3)CC2)C(C)C)on1 (stereo partly drawn) [Example 96, (2S,4R)—N-(2-((1-(1-(4-((5-(4-(aminomethyl)-4-methylpiperidin-1-yl)-6-(hydroxymethyl)pyrazin-2-yl)thio)-3-chloropyridin-2-yl)piperidine-4-carbonyl)piperidin-4-yl)oxy)-4-(4-methylthiazol-5-yl)benzyl)-4-hydroxy-1-(3-methyl-2-(3-methylisoxazol-5-yl)butanoyl)pyrrolidine-2-carboxamide]
7 | 95.0 | 99.7 | Cc1cc(C(C(=O)N2C[C@H](O)C[C@H]2C(=O)NCc2ccc(-c3scnc3C)cc2OC2CCN(C(=O)C3CCN(c4nccc(Sc5cnc(N6CCC(C)(N)CC6)c(CO)n5)c4Cl)CC3)CC2)C(C)C)on1 (stereo partly drawn) [Example 97, (2S,4R)—N-(2-((1-(1-(4-((5-(4-amino-4-methylpiperidin-1-yl)-6-(hydroxymethyl)pyrazin-2-yl)thio)-3-chloropyridin-2-yl)piperidine-4-carbonyl)piperidin-4-yl)oxy)-4-(4-methylthiazol-5-yl)benzyl)-4-hydroxy-1-(3-methyl-2-(3-methylisoxazol-5-yl)butanoyl)pyrrolidine-2-carboxamide]
8 | 99.6 | 99.7 | Cc1cc(C(C(=O)N2C[C@H](O)C[C@H]2C(=O)NCc2ccc(-c3scnc3C)cc2OC2CCN(C(=O)C3CCN(c4nccc(Sc5cnc(N6CCC7(CC6)CO[C@@H](C)[C@H]7N)c(CO)n5)c4Cl)CC3)CC2)C(C)C)on1 (stereo partly drawn) [Example 98, (2S,4R)—N-(2-((1-(1-(4-((5-((3S,4S)-4-amino-3-methyl-2-oxa-8-azaspiro[4.5]decan-8-yl)-6-(hydroxymethyl)pyrazin-2-yl)thio)-3-chloropyridin-2-yl)piperidine-4-carbonyl)piperidin-4-yl)oxy)-4-(4-methylthiazol-5-yl)benzyl)-4-hydroxy-1-(3-methyl-2-(3-methylisoxazol-5-yl)butanoyl)pyrrolidine-2-carboxamide]
9 | −4.8 | 91.5 | Cc1cnn(C(C(=O)N2C[C@H](O)C[C@H]2C(=O)NCc2ccc(-c3scnc3C)cc2OC2CCN(C(=O)C3CCN(c4nccc(Sc5cnc(N6CCC(C)(CN)CC6)cn5)c4Cl)CC3)CC2)C(C)C)c1 (stereo partly drawn) [Example 99, (2S,4R)—N-(2-((1-(1-(4-((5-(4-(aminomethyl)-4-methylpiperidin-1-yl)pyrazin-2-yl)thio)-3-chloropyridin-2-yl)piperidine-4-carbonyl)piperidin-4-yl)oxy)-4-(4-methylthiazol-5-yl)benzyl)-4-hydroxy-1-(3-methyl-2-(4-methyl-1H-pyrazol-1-yl)butanoyl)pyrrolidine-2-carboxamide]
10 | −65.7 | −18.7 | Cc1cnn(C(C(=O)N2C[C@H](O)C[C@H]2C(=O)NCc2ccc(-c3scnc3C)cc2OC2CCN(C(=O)C3CCN(c4nccc(Sc5cnc(N6CCC(C)(CN)CC6)cn5)c4Cl)CC3)CC2)C(C)C)c1 (stereo partly drawn) [Example 100, (2S,4R)—N-(2-((1-(1-(4-((5-(4-(aminomethyl)-4-methylpiperidin-1-yl)pyrazin-2-yl)thio)-3-chloropyridin-2-yl)piperidine-4-carbonyl)piperidin-4-yl)oxy)-4-(4-methylthiazol-5-yl)benzyl)-4-hydroxy-1-(3-methyl-2-(4-methyl-1H-pyrazol-1-yl)butanoyl)pyrrolidine-2-carboxamide]

— patent US20260144788A1, “COMPOUND FOR SHP2 PROTEIN DEGRADATION AND MEDICAL USES THEREOF” (UBIX THERAPEUTICS, INC., priority 2022, published 2026)
